Patent US12550898B2, “Herbicide combinations comprising glufosinate and carfentrazone-ethyl” (BASF SE, priority 2020, dated 2026)

Tests used:
Echinochloa crus-galli = experiment: Greenhouse post-emergence herbicidal activity on Echinochloa crus-galli; type: in vivo; details: 0.654 g ai/ha, scale 0-100, AMS + NIS added
Text: (§1) For the post-emergence treatment, the test plants were first grown to 3 to 4 inch (7.6 to 10.2 cm) tall, and only then treated. Here, the herbicidal compositions were suspended or emulsified in water as distribution medium and sprayed using finely distributing nozzles.
(§2) The herbicide compounds applied in the examples were used as commercially available formulations which have been diluted with deionized water to a suitable concentration.
(§3) Carfentrazone (commercial product name: Aim) was used as an emulsifiable concentrate having an active ingredient concentration of 240 g/l. Glufosinate (commercial product name: Liberty) was used as an aqueous soluble liquid of glufosinate ammonium having an active ingredient concentration of 280 g/l. Adjuvants of ammonium sulfate (AMS) and non-ionic surfactant (NIS) were added in all treatments. AMS and NIS were AMS Liquid and Induce at rates of 1680 g/ha and 0.25% (v/v), respectively.
(§4) The test period extended over 28 days after treatment (DAT). During this time, the plants were tended and their response to the individual treatments was evaluated.
(§5) The evaluation for the damage caused by the chemical compositions was carried out using a scale from 0 to 100%, compared to the untreated control plants. Here, 0 means no damage and 100 means complete destruction of the plants.
(§6) The plants used in the greenhouse experiments belonged to the following species:
(§7) 22 ff. E=X+Y−(X·Y/100) • where X=effect in percent using carfentrazone at an application rate a; • Y=effect in percent using glufosinate at application rate b; • E=expected effect (in %) of carfentrazone plus glufosinate at application rates a+b.
(§8) The value E corresponds to the effect (plant damage or injury) which is to be expected if the activity of the individual compounds is just additive. If the observed effect is higher than the value E calculated according to Colby, a synergistic effect is present.

Chenopodium album = experiment: Greenhouse post-emergence herbicidal activity on Chenopodium album; type: in vivo; details: 0.654 g ai/ha
Text: as §1, §2, §3, §4, §5, §6, §7, §8

CCOC(=O)C(Cl)Cc1cc(-n2nc(C)n(C(F)F)c2=O)c(F)cc1Cl (stereo not drawn) [Carfentrazone, carfentrazone-ethyl]
Solo Carfentrazone % activity (Echinochloa crus-galli; 7 DAT): 30%
Solo Carfentrazone % activity (Echinochloa crus-galli; 14 DAT): 18%
Solo Carfentrazone % activity (Echinochloa crus-galli; 21 DAT): 25%
Solo Carfentrazone % activity (Chenopodium album; 7 DAT, scale 0 (no damage) to 100 (complete destruction), AMS + NIS added): 30%
Solo Carfentrazone % activity (Chenopodium album; 14 DAT, scale 0-100, AMS + NIS added): 30%
Solo Carfentrazone % activity (Chenopodium album; 21 DAT, scale 0-100, AMS + NIS added): 35%
